Results taken from PMC11714206, “Massively Parallel Screening of Toll/Interleukin‐1 Receptor (TIR)‐Derived Peptides Reveals Multiple Toll‐Like Receptors (TLRs)‐Targeting Immunomodulatory Peptides” (Advanced Science, 2024).
“And” between values parts separate entries of the source, which are not always exact repeats. Equal values may be shown once.

Columns and labels:
MAL^TIR = biological target: T1, MAL^TIR (Homo sapiens, UniProt P58753); assay: T‐Surf phage library (P8 and P3) selection against MAL^TIR, four rounds, NGS read counts; type: binding; conditions: for P3_MAL Rank (after) / P3_MAL Rank (before): P3 library; for Population: 4th round of selection against MAL TIR, share of NGS reads; for Rank (after): P3_MAL: rank by count after grouping; for Rank (before): P3_MAL: rank by count before grouping
T1 construct: MAL (residues 79–221); 6xHis; made in house; host or cells: E. coli BL21 (DE3)
T1 sequence (P58753 79-221): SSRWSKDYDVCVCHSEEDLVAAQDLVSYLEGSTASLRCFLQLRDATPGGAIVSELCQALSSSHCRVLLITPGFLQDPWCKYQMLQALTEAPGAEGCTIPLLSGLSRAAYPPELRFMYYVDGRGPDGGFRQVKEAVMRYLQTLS
Outline: (§1)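 P8 and P3 T‐Surf libraries panned against plate-coated TIR domains (5 µg mL^−1), 1 h binding at RT, acid elution and TG1/helper-phage amplification per round. After four rounds, pools were PCR-barcoded and sequenced (NovaSeq, 100 bp paired-end, Phred ≥30); peptides ranked by read counts.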

MyD88^TIR = biological target: T2, MyD88^TIR (Homo sapiens, UniProt Q99836); assay: T‐Surf phage library (P8 and P3) selection against MyD88^TIR, four rounds, NGS read counts; type: binding; conditions: for P3_MyD88 Rank (after) / P3_MyD88 Rank (before): P3 library; for Rank (after): P3_MyD88: rank by count after grouping; for Rank (before): P3_MyD88: rank by count before grouping; for Population: 4th round of selection against MyD88 TIR, share of NGS reads
T2 construct: MyD88 (residues 148–296); 6xHis; made in house; host or cells: E. coli BL21 (DE3)
T2 sequence (Q99836 148-296): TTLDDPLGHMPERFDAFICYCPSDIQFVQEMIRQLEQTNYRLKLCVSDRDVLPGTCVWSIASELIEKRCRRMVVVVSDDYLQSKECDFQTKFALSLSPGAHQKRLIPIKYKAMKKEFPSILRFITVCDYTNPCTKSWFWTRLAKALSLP
Outline: as §1

[1] = 4R selection against MAL, rank after grouping
[2] = 4R selection against MAL, rank before grouping
[3] = selection against MyD88, rank after grouping
[4] = selection against MyD88, rank before grouping
[5] = selection against MAL, rank after grouping
[6] = selection against MAL, rank before grouping
[7] = P3_MAL pool: P3 T-Surf phage library
[8] = P3_MyD88 pool: P3 T-Surf phage library
[9] = selection against MyD88 TIR, rank by count after grouping
[10] = selection against MyD88 TIR, rank by count before grouping
[11] = selection against MAL TIR, rank by count after grouping
[12] = selection against MAL TIR, rank by count before grouping
[13] = 4R selection against MyD88, rank after grouping
[14] = 4R selection against MyD88, rank before grouping

AFLYTFLINLTHPTNF
P3_MAL Rank (after) (MAL^TIR; [1]): 588 | P3_MAL Rank (before) (MAL^TIR; [2]): 1798 | Population (MAL^TIR; P8_MAL pool: P8 T-Surf phage library): 0.00463% and 0.00432% and 0.00402% and 0.00371% and 0.0034% and 0.00309% and 0.00278% | P3_MyD88 Rank (after) (MyD88^TIR; [3]): 537 | P3_MyD88 Rank (before) (MyD88^TIR; [4]): 1881

ARLPAICIVIWCSVA
Rank (after) (MAL^TIR): 106 | Rank (before) (MAL^TIR): 170 | Rank (after) (MyD88^TIR): 140 | Rank (before) (MyD88^TIR): 935

DIQRSRFKDDADLVGQ
Rank (after) (MAL^TIR): 130 | Rank (before) (MAL^TIR): 1958 | Rank (after) (MyD88^TIR): 391 | Rank (before) (MyD88^TIR): 2068

DSQSSRFKDDADLVG
P3_MAL Rank (after) (MAL^TIR; [5]): 511 | P3_MAL Rank (before) (MAL^TIR; [6]): 1972 | Rank (after) (MyD88^TIR): 141 | Rank (before) (MyD88^TIR): 635

ELDFSHFWLFDGQAGGEA
P8_MAL Rank (after) (MAL^TIR; P8 library, selection against MAL TIR, rank by count after grouping): 200 | P8_MAL Rank (before) (MAL^TIR; P8 library, selection against MAL TIR, rank by count before grouping): 2049 | Population (MyD88^TIR; P8_MyD88 pool: P8 T-Surf phage library): 0.00771%

EWIREGLWRLLELSKK
Rank (after) (MAL^TIR): 135 | Rank (before) (MAL^TIR): 411 | Rank (after) (MyD88^TIR): 96 | Rank (before) (MyD88^TIR): 361

KEVEGWRDALTAAANLSGW
Population (MAL^TIR; [7]): 0.00376% | Rank (after) (MAL^TIR): 112 | Rank (before) (MAL^TIR): 177 | Population (MyD88^TIR; [8]): 0.00437%

KEVEGWRDALTKVANLSGW
P3_MAL Rank (after) (MAL^TIR; [5]): 565 | P3_MAL Rank (before) (MAL^TIR; [6]): 3573 | P3_MyD88 Rank (after) (MyD88^TIR; [3]): 522 | P3_MyD88 Rank (before) (MyD88^TIR; [4]): 3634

KEVEGWRDALTKVANLV
Rank (after) (MAL^TIR): 134 | Rank (before) (MAL^TIR): 489 | Population (MyD88^TIR; [8]): 0.00349%

KEVEGWRDALTKWRA
P3_MAL Rank (after) (MAL^TIR; [1]): 652 | P3_MAL Rank (before) (MAL^TIR; [2]): 3567 | P3_MyD88 Rank (after) (MyD88^TIR; [9]): 250 | P3_MyD88 Rank (before) (MyD88^TIR; [10]): 1304

KMQKWKDALYEAANLSGW
Population (MAL^TIR; [7]): 0.0124% | Rank (after) (MAL^TIR): 105 | Rank (before) (MAL^TIR): 109 | Population (MyD88^TIR; [8]): 0.00437%

LKVESCVRRWKKRAN
P3_MAL Rank (after) (MAL^TIR; [11]): 213 | P3_MAL Rank (before) (MAL^TIR; [12]): 2293 | P3_MyD88 Rank (after) (MyD88^TIR; [13]): 592 | P3_MyD88 Rank (before) (MyD88^TIR; [14]): 2519

LKVESWRDALTKVASL
Rank (after) (MAL^TIR): 142 | Rank (before) (MAL^TIR): 847 | Population (MyD88^TIR; [8]): 0.0032%

LKVESWRQALEKRAN
Rank (after) (MAL^TIR): 122 | Rank (before) (MAL^TIR): 331 | Rank (after) (MyD88^TIR): 99 | Rank (before) (MyD88^TIR): 383

LKVESWRQSREKAGKL
P3_MAL Rank (after) (MAL^TIR; [5]): 557 | P3_MAL Rank (before) (MAL^TIR; [6]): 2266 | P3_MyD88 Rank (after) (MyD88^TIR; [3]): 512 | P3_MyD88 Rank (before) (MyD88^TIR; [4]): 2480

LKWAIRIFGANCVMR
P3_MAL Rank (after) (MAL^TIR; [11]): 274 | P3_MAL Rank (before) (MAL^TIR; [12]): 844 | Rank (after) (MyD88^TIR): 154 | Rank (before) (MyD88^TIR): 1073

LKWGDPYFGANCVMR
Rank (after) (MAL^TIR): 143 | Rank (before) (MAL^TIR): 415 | P3_MyD88 Rank (after) (MyD88^TIR; [9]): 269 | P3_MyD88 Rank (before) (MyD88^TIR; [10]): 1069

LKWGDPYFWSKLRFA
Rank (after) (MAL^TIR): 474 | Rank (before) (MAL^TIR): 2222 | P3_MyD88 Rank (after) (MyD88^TIR; [9]): 207 | P3_MyD88 Rank (before) (MyD88^TIR; [10]): 1061

LKWGYPWFWDRLRFA
Rank (after) (MAL^TIR): 123 | Rank (before) (MAL^TIR): 329 | Population (MyD88^TIR; [8]): 0.00495%

LNGAIRIFGANCVMR
P3_MAL Rank (after) (MAL^TIR; [5]): 534 | P3_MAL Rank (before) (MAL^TIR; [6]): 2194 | P3_MyD88 Rank (after) (MyD88^TIR; [3]): 494 | P3_MyD88 Rank (before) (MyD88^TIR; [4]): 2400

LQNQWKLALTKVANLSGW
Rank (after) (MAL^TIR): 116 | Rank (before) (MAL^TIR): 213 | Rank (after) (MyD88^TIR): 98 | Rank (before) (MyD88^TIR): 680

LQNQWKLALTKVASL
Rank (after) (MAL^TIR): 132 | Rank (before) (MAL^TIR): 327 | Rank (after) (MyD88^TIR): 100 | Rank (before) (MyD88^TIR): 374

NGHESEIIKEIWIPL
Rank (after) (MAL^TIR): 429 | Rank (before) (MAL^TIR): 3263 | Rank (after) (MyD88^TIR): 407 | Rank (before) (MyD88^TIR): 3358

NQWKLALTKVANLV
P3_MAL Rank (after) (MAL^TIR; [1]): 638 | P3_MAL Rank (before) (MAL^TIR; [2]): 3421 | P3_MyD88 Rank (after) (MyD88^TIR; [13]): 579 | P3_MyD88 Rank (before) (MyD88^TIR; [14]): 3536

NQWRNALTAAANLNGW
Population (MAL^TIR; [7]): 0.00564% | Population (MyD88^TIR; [8]): 0.00408%

NQWRNALTAAANLRL
P3_MAL Rank (after) (MAL^TIR; [5]): 550 | P3_MAL Rank (before) (MAL^TIR; [6]): 3366 | P3_MyD88 Rank (after) (MyD88^TIR; [3]): 507 | P3_MyD88 Rank (before) (MyD88^TIR; [4]): 3498

NQWRNALTAAANLS
Population (MAL^TIR; [7]): 0.0162% | Rank (after) (MAL^TIR): 102 | Rank (before) (MAL^TIR): 105 | Population (MyD88^TIR; [8]): 0.00553%

NQWRNALYEAANLS
P3_MAL Rank (after) (MAL^TIR; [11]): 198 | P3_MAL Rank (before) (MAL^TIR; [12]): 1055 | Rank (after) (MyD88^TIR): 184 | Rank (before) (MyD88^TIR): 1269
